For two compounds, IC50 results are on record in BindingDB's records for doi:10.1016/j.bmcl.2016.09.067 (Amgen, 2016).

pIC50: −log10 of the molar value.

Experiment [1] addresses Serine/threonine-protein kinase pim-2 (Homo sapiens, UniProt Q9P1W9). As to the kind of experiment: Inhibition of recombinant Pim2 (unknown origin) by electrochemiluminescence assay.
Experiment [2] addresses Serine/threonine-protein kinase pim-1 (Homo sapiens, UniProt P11309). As to the kind of experiment: Inhibition of recombinant Pim1 (unknown origin) by electrochemiluminescence assay.

Serine/threonine-protein kinase pim-2, sequence (Q9P1W9 whole entry): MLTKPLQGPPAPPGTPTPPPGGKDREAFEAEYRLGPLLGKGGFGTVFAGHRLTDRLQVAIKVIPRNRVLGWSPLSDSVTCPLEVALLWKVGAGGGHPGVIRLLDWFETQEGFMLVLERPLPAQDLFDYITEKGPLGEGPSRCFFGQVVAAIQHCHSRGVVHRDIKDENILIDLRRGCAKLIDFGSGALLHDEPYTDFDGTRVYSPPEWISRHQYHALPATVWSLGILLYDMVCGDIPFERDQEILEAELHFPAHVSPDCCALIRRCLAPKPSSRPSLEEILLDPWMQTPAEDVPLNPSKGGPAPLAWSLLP
Serine/threonine-protein kinase pim-1, sequence (P11309 whole entry): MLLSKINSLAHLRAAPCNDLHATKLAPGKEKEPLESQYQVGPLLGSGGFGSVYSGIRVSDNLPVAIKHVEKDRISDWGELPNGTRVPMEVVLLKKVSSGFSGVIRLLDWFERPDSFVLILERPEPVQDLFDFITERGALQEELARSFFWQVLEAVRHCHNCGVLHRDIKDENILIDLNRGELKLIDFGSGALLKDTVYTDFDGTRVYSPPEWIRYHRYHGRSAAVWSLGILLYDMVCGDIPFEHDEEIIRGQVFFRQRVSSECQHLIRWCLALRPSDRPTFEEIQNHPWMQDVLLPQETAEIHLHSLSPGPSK

On to `N[C@H]1CCN(c2ccncc2Nc2ncc3ccc(-c4c(F)cccc4F)nn23)C1` [US9187486, 13], for which, in experiment [1], the pIC50 was under 6.00.

In the case of `N[C@H]1CCCN(c2cnccc2Nc2ncc3ccc(-c4c(F)cccc4F)nn23)C1` [US9187486, 80], the pIC50 in experiment [1] and in experiment [2] was under 6.00 in each case.
